ChEMBL document CHEMBL1143347, “Carbonic anhydrase inhibitors: inhibition of the beta-class enzyme from the yeast Saccharomyces cerevisiae with sulfonamides and sulfamates” (Bioorg Med Chem, 2009)

Molecular target: T1, Carbonic anhydrase (Saccharomyces cerevisiae S288c, UniProt P53615)
T1 sequence (P53615 whole entry): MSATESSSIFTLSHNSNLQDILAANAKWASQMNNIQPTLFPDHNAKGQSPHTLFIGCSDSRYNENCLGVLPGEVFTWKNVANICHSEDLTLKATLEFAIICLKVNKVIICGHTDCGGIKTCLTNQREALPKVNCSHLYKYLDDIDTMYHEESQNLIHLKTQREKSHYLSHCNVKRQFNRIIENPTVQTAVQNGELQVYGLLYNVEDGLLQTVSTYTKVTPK
Description: Inhibition of Saccharomyces cerevisiae recombinant CA expressed in Escherichia coli by stopped-flow CO2 hydrase assay

Ki	Structure (SMILES)
447 nM	Nc1nnc(S(N)(=O)=O)s1
166 nM	Nc1ccc(S(=O)(=O)NCc2ccc(S(N)(=O)=O)cc2)cc1
169 nM	Nc1cc(Cl)c(S(N)(=O)=O)cc1S(N)(=O)=O
976 nM	Nc1ccc(S(N)(=O)=O)cc1I
124 nM	Nc1ccc(S(=O)(=O)Nc2nnc(S(N)(=O)=O)s2)cc1
565 nM	NS(=O)(=O)c1nnc(-c2ccccc2Cl)s1
15.1 nM	Nc1nccc(Nc2ccc(S(N)(=O)=O)cc2)n1
248 nM	Nc1ccc(S(N)(=O)=O)cc1Br
7540 nM	NS(=O)(=O)c1ccc(CCO)cc1
389 nM	Nc1ccc(S(N)(=O)=O)cc1F
8970 nM	NS(=O)(=O)c1ccc(CO)cc1
457 nM	Nc1ccc(S(N)(=O)=O)cc1Cl
154 nM	Nc1ccc(S(=O)(=O)NCCc2ccc(S(N)(=O)=O)cc2)cc1
133 nM	NS(=O)(=O)c1ccc(S(=O)(=O)Nc2cccc3c(Cl)c[nH]c23)cc1
223 nM	Nc1cc(C(F)(F)F)c(S(N)(=O)=O)cc1S(N)(=O)=O [2,4-DISULFAMYLTRIFLUOROMETHYLANILINE]
111 nM	NS(=O)(=O)c1nnc(NS(=O)(=O)c2ccccc2)s1 [BENZOLAMIDE]
114 nM	CCN[C@H]1CN(CCCOC)S(=O)(=O)c2sc(S(N)(=O)=O)cc21 [BRINZOLAMIDE]
14500 nM	NS(=O)(=O)c1ccc(C(=O)O)cc1 [CARZENIDE]
108 nM	Cc1ccc(-c2cc(C(F)(F)F)nn2-c2ccc(S(N)(=O)=O)cc2)cc1 [CELECOXIB]
433 nM	NCc1ccc(S(N)(=O)=O)cc1 [MAFENIDE]
16100 nM	Cc1ccc(S(N)(=O)=O)cc1 [P-TOLUENESULFONAMIDE]
12500 nM	O=C1NS(=O)(=O)c2ccccc21 [SACCHARIN]
18500 nM	Nc1ccc(S(N)(=O)=O)cc1 [SULFANILAMIDE]
110 nM	CC1(C)O[C@@H]2[C@@H](CO[C@@]3(COS(N)(=O)=O)OC(C)(C)O[C@@H]23)O1 [TOPIRAMATE]

Structure (SMILES)	Ki
NCCc1ccc(S(N)(=O)=O)cc1	163 nM
